≈ marks a conversion by molar mass, not a printed value.
Experiments:
[1] = tested on: VERO cells; assay: Cell viability assay (MTT), VERO; format: cell-based, Cercopithecus aethiops; conditions: concentration for 30% proliferation inhibition, 24 h
Method: (§1) The epithelial cell line VERO (ATCC-Catalog No. CCL-81^TM), derived from the kidney of the African green monkey, Cercopithecus aethiops and fibroblast cell line L-929 (ATCC-Catalog No. CCL-1^TM), derived from Mus musculus (http://www.atcc.org) were grown in Iscoves’s Modified Dulbecco’s Medium (IMDM) supplemented with 10% (v/v) fetal bovine serum (FBS), plus 2 mM L-glutamine, 100 U/ml penicillin, 100.00 µg/ml streptomycin, 5 × 10^−5 M 2-mercaptoethanol and maintained at 37 °C in a 10% CO2 atmosphere. Subcultures were performed via enzymatic cell dissociation in 0.25% trypsin. After dissociation, the cells were placed in culture medium at 4 °C with 10% FBS to inhibit the action of trypsin. The isolated cells were centrifuged for 10 min at 1000×g at 4 °C, and the cells were grown in new bottles. This procedure was repeated when cells reached a confluence of ~90%. All commercial reactants and solvents were purchased from either Sigma-Aldrich Laborchemikalien GmbH (Dzitko et al. [2014]).
(§2) Suspensions of the compounds 4a–l were freshly prepared (5 mg/ml DMSO) before the cells were exposed, and diluted to appropriate concentrations; 0.9, 1.8, 3.9, 7.8, 15.6, 31.2, 62.5, and 125.00 μg/ml with the culture medium. Cells treated with 2.5% DMSO-solvent served as a control in each experiment.
(§3) The effects of tested compounds on the viability of mouse fibroblasts L929 and […] VERO cells were evaluated using the MTT assay. The MTT assay was used according to international standards: ISO 10993-5:2009 (Tests for in vitro cytotoxicity; http://www.iso.org/iso/catalogue_detail.htm? csnumber = 36406). L929 and VERO cells were plated into 96-well plates at a density of 1.0 × 10^4/100 μl/well in culture medium and allowed to attach for 24 h before treatment. Afterwards, culture medium in the plates was replaced by 100 μl compounds suspension at concentration of 0–125 μg/ml and the cells were exposed for 24 h. Then 1 mg/ml MTT (50 μl/well) was added to each well and incubated at 37 °C, 10 % CO2 for 2 h. Mitochondrial dehydrogenases of viable cells reduce the yellowish water-soluble MTT to water-insoluble formazan crystals, which were solubilized with dimethyl sulfoxide (DMSO). The cell culture medium was aspirated cautiously, after which 150 μl DMSO was added to each well and mixed thoroughly. Optical density (OD) was read on the ELISA reader (Multiskan EX, Labsystems; http://www.mtxlsi.com/multiskan_EX.htm) at 550 nm. The results were expressed as percentage viability compared with the treated 2.5% DMSO controls. All experiments were performed in triplicate.

[2] = Cell viability assay (MTT), VERO; format: cell-based, Cercopithecus aethiops; conditions: African green monkey (Cercopithecus aethiops), VERO kidney epithelial cells
Method: as §1, §2, §3

[3] = tested on: mouse L929 fibroblast; assay: Cell viability assay (MTT), L929; format: cell-based; conditions: concentration for 30% proliferation inhibition, 24 h
Method: as §1, §2, §3

[4] = Cell viability assay (MTT), L929; format: cell-based, Mus musculus; conditions: mouse, L929 fibroblast cells
Method: as §1, §2, §3

[5] = tested on: Toxoplasma gondii BK strain; assay: T. gondii tachyzoite intracellular proliferation in VERO host cells ([3H]uracil incorporation); format: cell-based; conditions: Toxoplasma gondii, VERO host cells
Method: as §1, §2
Stock solutions of the Sulfadiazine (100 mg/ml 1 N NaOH; Catalog No. S8626) was freshly prepared before each experiment, and diluted to appropriate concentrations: 5.00, 25.00, 50.00, 125.00, 250.00, 500.00, 1250.00, and 2500.00 μg/ml, respectively in IMDM complete medium. All commercial reactants and solvents were purchased from either Sigma-Aldrich Laborchemikalien GmbH.
Tachyzoites of T. gondii, BK strain, were maintained in female C57BL/6 (H-2^b) and BALB/c (H-2^d) mice (with genetically determined high and low susceptibility, respectively to Toxoplasma infection) via serial intraperitoneal inoculation of 10^5–10^6 parasites per mouse in phosphate-buffered saline (PBS). After 48 to 96 h, parasites were harvested via peritoneal lavage using PBS, pH 7.2, and centrifuged at 200×g for 5 min to remove blood cells and cell debris. The supernatant containing tachyzoites was collected and centrifuged again at 2000×g for 15 min. The final pellet was resuspended in IMDM, quantified in a Burker’s chamber, and used in experimental assays. Inbred mice were kept under standard laboratory conventional conditions. All experimental procedures were conducted according to guidelines of the 9. Local Ethics Commission for Experiments on Animals in Lodz.
VERO, (2 × 10^4 cells/100 µl/well) were grown in complete medium (IMDM) on 96-well plates. After 24 h incubation, a medium was removed and then T. gondii […] tachyzoites, suspended in culture medium supplemented with 0.9–125.00 μg/ml diaminotriazines 4a–l and as a control-sulfadiazine (5.0–2500.0 μg/ml), were added (2 × 10^5 tachyzoites/200 µl/well) to the cell monolayers. After subsequent 48 h incubation 1 µCi/well of [^3H] uracil (Moravek Biochemicals Inc., Brea, CA, USA) was applied to each microculture for further 18–20 h. The amount of the isotope incorporated into the parasite nucleic acid pool, corresponding to the parasite growth, was measured by liquid scintillation counting with 1450 Microbeta Plus Liquid Scintillation Counter (Wallac Oy, Turku, Finland). The cpms of host cells alone (below 250/microculture) were subtracted from cpms of T. gondii infected microcultures (Dzitko et al. [2014]).

With `C/C(=N\NC(N)=S)c1ccc(Nc2nc(N)nc(N)n2)cc1` [Compound 3, (2E)-2-(1-(4-((4,6-diamino-1,3,5-triazin-2-yl)amino)phenyl)ethylidene)hydrazinecarbothioamide] the “CC30 VERO” value [1] was >125.0 µg/mL, the viability at 24 h, 0.9 µg/ml ([2]; 0.9 µg/ml) was 97.2% and the viability at 24 h, 1.8 µg/ml ([2]; 1.8 µg/ml) was 94%. For the same molecule, the viability at 24 h, 3.9 µg/ml ([2]; 3.9 µg/ml) was 97.3%, the viability at 24 h, 7.8 µg/ml ([2]; 7.8 µg/ml) was 88.8% and the viability at 24 h, 15.6 µg/ml ([2]; 15.6 µg/ml) was 89.5%. It also gave a viability at 24 h, 31.2 µg/ml ([2]; 31.2 µg/ml) of 96.2%, a viability at 24 h, 62.5 µg/ml ([2]; 62.5 µg/ml) of 95.1% and a viability at 24 h, 125 µg/ml ([2]; 125.0 µg/ml) of 89.2%. For the same molecule, the melting point was > 230 °C, the “CC30 L929” value [3] was >125.0 µg/mL and the viability at 24 h, 0.9 µg/ml ([4]; 0.9 µg/ml) was 110%. It also gave a viability at 24 h, 1.8 µg/ml ([4]; 1.8 µg/ml) of 116%, a viability at 24 h, 3.9 µg/ml ([4]; 3.9 µg/ml) of 111% and a viability at 24 h, 7.8 µg/ml ([4]; 7.8 µg/ml) of 106%. For the same molecule, the viability at 24 h, 15.6 µg/ml ([4]; 15.6 µg/ml) was 105%, the viability at 24 h, 31.2 µg/ml ([4]; 31.2 µg/ml) was 112% and the viability at 24 h, 62.5 µg/ml ([4]; 62.5 µg/ml) was 111%. The viability at 24 h, 125 µg/ml ([4]; 125.0 µg/ml) was 110%, the activity at 0.9 µg/mL ([5]; 0.9 µg/ml) was 100% and the activity at 1.8 µg/mL ([5]; 1.8 µg/ml) was 107%. For the same molecule, the activity at 3.9 µg/mL ([5]; 3.9 µg/ml) was 98.6%, the activity at 7.8 µg/mL ([5]; 7.8 µg/ml) was 84.2% and the activity at 15.6 µg/mL ([5]; 15.6 µg/ml) was 64.6%. It also gave an activity at 31.2 µg/mL ([5]; 31.2 µg/ml) of 57.8%, an activity at 62.5 µg/mL ([5]; 62.5 µg/ml) of 49.4% and an activity at 125 µg/mL ([5]; 125.0 µg/ml) of 48.7%. The IC50 ([5]; GraphPad Prism curves, read-out: IC50 (50% inhibition of T. gondii proliferation in vitro)) was 70.4 µg/mL (≈ 222 µM).
